Reference: patent US10414769B2, “5,8-dimethyl-9-phenyl-5,8-dihydro-6H-pyrazolo[3,4-h]quinazolin-2-yl)-(1H-pyrazol-3-yl)-amines as IGF-1R/IR inhibitors” (Boehringer Ingelheim International GmbH, priority 2015, dated 2019)

Tests used:
[1] = target: standard panel of 30 kinases; experiment: Kinase selectivity panel (SelectScreen Z'-LYTE), number of kinases inhibited; assay type: biochemical, human; conditions: count out of 30 kinases
From the text: Prior art document WO 2012/010704, which is completely silent about the pharmacokinetic profile of its compounds, discloses compounds with similar substituents in the 2-position, e.g. compounds I-166, I-167 and I-175, which share the previously undefined, desirable pharmacokinetic profile with compounds (I) according to the invention.
(§1) In order to compare the kinase selectivity of compounds (I) according to the invention with known prior art compounds the commercially provided SelectScreen® Kinase Profiling Service (Z′-LYTE®) was used (Life Technologies GmbH, Darmstadt, Germany) to investigate the ability of the compounds to inhibit a number of different, representatively selected human kinases. Further details regarding this service are available on the Life Technologies website at
(§2) The Z′-LYTE® biochemical assay employs a fluorescence-based, coupled-enzyme format and is based on the differential sensitivity of phosphorylated and non-phosphorylated peptides to proteolytic cleavage. The peptide substrate is labeled with two fluorophores—one at each end—that make up a FRET pair.
(§3) In the primary reaction, the kinase transfers the gamma-phosphate of ATP to a single tyrosine, serine or threonine residue in a synthetic FRET-peptide. In the secondary reaction, a site-specific protease recognizes and cleaves non-phosphorylated FRET-peptides. Phosphorylation of FRET-peptides suppresses cleavage by the Development Reagent. Cleavage disrupts FRET between the donor (i.e., coumarin) and acceptor (i.e., fluorescein) fluorophores on the FRET-peptide, whereas uncleaved, phosphorylated FRET-peptides maintain FRET. A ratiometric method, which calculates the ratio (the Emission Ratio) of donor emission to acceptor emission after excitation of the donor fluorophore at 400 nm, is used to quantitate reaction progress, as shown in the equation below.
(§4) The Test Compounds are screened at 1 μM.

ABL1 = target: T1, ABL1 (Homo sapiens, UniProt P00519); experiment: Z'-LYTE kinase selectivity assay ABL1; assay type: biochemical
T1 construct: purchased Life Technologies P3049
From the text: as §1, §2, §3, §4
The 2×ABL1 (# P3049)/Tyr 02 (Z′-LYTE® Kinase Assay Kit—Tyrosine 2 Peptide, # PV 3191) mixture is prepared in 50 mM HEPES pH 7.5, 0.01% BRIJ-35, 10 mM MgCl2, 1 mM EGTA. The final 10 μL Kinase Reaction consists of 0.29-2.52 ng ABL1 and 2 μM Tyr 02 in 50 mM HEPES pH 7.5, 0.01% BRIJ-35, 10 mM MgCl2, 1 mM EGTA. After the 1 hour Kinase Reaction incubation, 5 μL of a 1:128 dilution of Development Reagent A is to added.

FGFR1 = target: T2, FGFR1 (Homo sapiens, UniProt P11362); experiment: Z'-LYTE kinase selectivity assay FGFR1; assay type: biochemical
T2 construct: purchased Life Technologies PV 3146
From the text: as §1, §2, §3, §4
The 2×FGFR1 (# PV 3146)/Tyr 04 (Z′-LYTE® Kinase Assay Kit—Tyrosine 4 Peptide, # PV 3193) mixture is prepared in 50 mM HEPES pH 7.5, 0.01% BRIJ-35, 10 mM MgCl2, 4 mM MnCl2, 1 mM EGTA, 2 mM DTT. The final 10 μL Kinase Reaction consists of 0.44-2.45 ng FGFR1 and 2 μM Tyr 04 in 50 mM HEPES pH 7.5, 0.01% BRIJ-35, 10 mM MgCl2, 2 mM MnCl2, 1 mM EGTA, 1 mM DTT. After the 1 hour Kinase Reaction incubation, 5 μL of a 1:64 dilution of Development Reagent B is added.

FRAP1 (mTOR) = target: T3, FRAP1 (mTOR) (Homo sapiens, UniProt P42345); experiment: Z'-LYTE kinase selectivity assay FRAP1 (mTOR); assay type: biochemical
T3 construct: purchased Life Technologies PR8683B
From the text: as §1, §2, §3, §4
The 2×FRAP1 (mTOR) (# PR8683B)/Ser/Thr 11 (Z′-LYTE® Kinase Assay Kit—Ser/Thr 11 Peptide, # PV 3670) mixture is prepared in 50 mM HEPES pH 7.5, 0.01% BRIJ-35, 10 mM MnCl2, 1 mM EGTA, 2 mM DTT, 0.02% NaN3. The final 10 μL Kinase Reaction consists of 11.1-56 ng FRAP1 (mTOR) and 2 μM Ser/Thr 11 in 50 mM HEPES pH 7.5, 0.01% BRIJ-35, 5 mM MgCl2, 5 mM MnCl2, 1 mM EGTA, 1 mM DTT, 0.01% NaN3. After the 1 hour Kinase Reaction incubation, 5 μL of a 1:16 dilution of Development Reagent B is added.

MAP2K1 (MEK1) = target: T4, MAP2K1 (MEK1) (Homo sapiens, UniProt Q02750); experiment: Z'-LYTE kinase selectivity assay MAP2K1; assay type: biochemical
T4 construct: purchased Life Technologies PV 3303
From the text: as §1, §2, §3, §4
(§5) After the 1 hour Kinase Reaction incubation, 5 μL of a 1:1024 dilution of Development Reagent A is added.

RAF1 (cRAF) Y340D Y341D = target: T5, RAF1 (cRAF) Y340D Y341D (Homo sapiens, UniProt P04049, Y340D/Y341D); experiment: Z'-LYTE kinase selectivity assay RAF1; assay type: biochemical
T5 construct: purchased Life Technologies PV 4046
From the text: as §1, §2, §3, §4, §5

SRPK2 = target: T6, SRPK2 (Homo sapiens, UniProt P78362); experiment: Z'-LYTE kinase selectivity assay SRPK2; assay type: biochemical
T6 construct: purchased Life Technologies PV 3829
From the text: as §1, §2, §3, §4
The 2×SRPK2 (# PV 3829)/Ser/Thr 07 (Z′-LYTE® Kinase Assay Kit—Ser/Thr 7 Peptide, # PV 3180) mixture is prepared in 50 mM HEPES pH 7.5, 0.01% BRIJ-35, 10 mM MgCl2, 1 mM EGTA. The final 10 μL Kinase Reaction consists of 3.76-52 ng SRPK2 and 2 μM Ser/Thr 07 in 50 mM HEPES pH 7.5, 0.01% BRIJ-35, 10 mM MgCl2, 1 mM EGTA. After the 1 hour Kinase Reaction incubation, 5 μL of a 1:65000 dilution of Development Reagent A is added.

T6 sequence (P78362 whole entry): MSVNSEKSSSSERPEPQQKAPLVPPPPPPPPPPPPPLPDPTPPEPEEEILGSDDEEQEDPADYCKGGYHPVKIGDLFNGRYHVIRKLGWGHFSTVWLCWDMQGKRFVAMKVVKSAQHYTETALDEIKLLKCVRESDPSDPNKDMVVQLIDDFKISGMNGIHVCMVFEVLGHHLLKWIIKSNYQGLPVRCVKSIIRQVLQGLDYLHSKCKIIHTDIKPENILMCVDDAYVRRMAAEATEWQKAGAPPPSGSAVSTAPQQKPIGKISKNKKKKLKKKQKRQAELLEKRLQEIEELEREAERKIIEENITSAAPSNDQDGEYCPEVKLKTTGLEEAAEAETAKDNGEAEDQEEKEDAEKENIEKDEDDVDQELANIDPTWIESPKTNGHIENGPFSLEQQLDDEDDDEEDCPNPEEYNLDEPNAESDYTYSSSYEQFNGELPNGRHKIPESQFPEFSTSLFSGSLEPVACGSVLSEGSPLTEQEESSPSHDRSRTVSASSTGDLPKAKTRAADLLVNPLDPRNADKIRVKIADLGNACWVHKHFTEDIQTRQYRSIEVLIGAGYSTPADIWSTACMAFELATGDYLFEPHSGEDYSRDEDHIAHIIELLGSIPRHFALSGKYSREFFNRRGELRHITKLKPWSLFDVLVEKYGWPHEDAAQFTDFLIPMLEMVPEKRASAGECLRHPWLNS
T1 sequence (P00519 whole entry): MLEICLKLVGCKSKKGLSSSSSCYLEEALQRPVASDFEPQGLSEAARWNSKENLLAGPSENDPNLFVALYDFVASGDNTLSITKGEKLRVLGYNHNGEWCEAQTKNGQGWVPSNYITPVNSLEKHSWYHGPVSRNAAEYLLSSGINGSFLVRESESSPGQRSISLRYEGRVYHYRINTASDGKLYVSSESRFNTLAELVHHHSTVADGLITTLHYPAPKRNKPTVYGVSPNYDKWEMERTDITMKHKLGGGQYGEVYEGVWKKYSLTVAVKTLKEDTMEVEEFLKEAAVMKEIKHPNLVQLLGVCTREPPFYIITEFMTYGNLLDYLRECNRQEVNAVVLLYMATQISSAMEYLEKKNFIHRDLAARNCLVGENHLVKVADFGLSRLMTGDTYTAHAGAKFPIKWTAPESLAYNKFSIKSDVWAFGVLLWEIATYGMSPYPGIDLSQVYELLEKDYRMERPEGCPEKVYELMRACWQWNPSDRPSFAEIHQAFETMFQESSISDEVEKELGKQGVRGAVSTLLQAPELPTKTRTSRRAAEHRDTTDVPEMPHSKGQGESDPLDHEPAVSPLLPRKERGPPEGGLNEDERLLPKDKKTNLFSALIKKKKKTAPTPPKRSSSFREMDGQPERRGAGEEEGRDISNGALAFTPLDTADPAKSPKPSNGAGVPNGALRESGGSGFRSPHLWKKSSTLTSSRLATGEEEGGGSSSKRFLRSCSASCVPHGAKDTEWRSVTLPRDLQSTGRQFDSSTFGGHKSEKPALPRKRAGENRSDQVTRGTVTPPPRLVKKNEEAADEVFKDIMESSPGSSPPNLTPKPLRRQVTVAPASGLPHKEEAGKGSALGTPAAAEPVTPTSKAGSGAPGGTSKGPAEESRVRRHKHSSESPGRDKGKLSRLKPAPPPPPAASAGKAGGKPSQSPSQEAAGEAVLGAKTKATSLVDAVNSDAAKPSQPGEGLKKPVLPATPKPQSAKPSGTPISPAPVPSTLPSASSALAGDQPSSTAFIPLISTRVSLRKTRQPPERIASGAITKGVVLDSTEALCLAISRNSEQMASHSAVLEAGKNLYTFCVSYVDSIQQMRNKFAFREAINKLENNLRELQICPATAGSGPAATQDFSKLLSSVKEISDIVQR
T4 sequence (Q02750 whole entry): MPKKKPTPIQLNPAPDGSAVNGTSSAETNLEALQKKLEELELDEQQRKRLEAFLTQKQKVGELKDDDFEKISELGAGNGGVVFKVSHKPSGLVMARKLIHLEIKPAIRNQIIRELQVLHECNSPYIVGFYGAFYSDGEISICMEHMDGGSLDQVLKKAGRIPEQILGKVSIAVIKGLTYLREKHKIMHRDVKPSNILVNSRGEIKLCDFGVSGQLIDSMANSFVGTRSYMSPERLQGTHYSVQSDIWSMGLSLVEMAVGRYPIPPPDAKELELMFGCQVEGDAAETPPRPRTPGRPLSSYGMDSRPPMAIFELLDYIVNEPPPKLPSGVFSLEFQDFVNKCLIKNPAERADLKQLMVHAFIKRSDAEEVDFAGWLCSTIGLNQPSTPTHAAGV
T5 sequence (P04049 306-648 Y340D/Y341D limits assumed): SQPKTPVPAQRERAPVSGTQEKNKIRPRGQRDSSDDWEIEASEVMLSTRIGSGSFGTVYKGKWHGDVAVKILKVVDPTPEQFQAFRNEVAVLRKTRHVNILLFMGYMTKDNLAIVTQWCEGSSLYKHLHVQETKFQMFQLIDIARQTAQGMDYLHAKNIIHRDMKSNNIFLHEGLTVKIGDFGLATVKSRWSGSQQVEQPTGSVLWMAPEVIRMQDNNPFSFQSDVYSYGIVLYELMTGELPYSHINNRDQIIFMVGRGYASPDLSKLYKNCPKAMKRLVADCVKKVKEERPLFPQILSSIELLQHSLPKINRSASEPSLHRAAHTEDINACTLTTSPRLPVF
T2 sequence (P11362 22-822): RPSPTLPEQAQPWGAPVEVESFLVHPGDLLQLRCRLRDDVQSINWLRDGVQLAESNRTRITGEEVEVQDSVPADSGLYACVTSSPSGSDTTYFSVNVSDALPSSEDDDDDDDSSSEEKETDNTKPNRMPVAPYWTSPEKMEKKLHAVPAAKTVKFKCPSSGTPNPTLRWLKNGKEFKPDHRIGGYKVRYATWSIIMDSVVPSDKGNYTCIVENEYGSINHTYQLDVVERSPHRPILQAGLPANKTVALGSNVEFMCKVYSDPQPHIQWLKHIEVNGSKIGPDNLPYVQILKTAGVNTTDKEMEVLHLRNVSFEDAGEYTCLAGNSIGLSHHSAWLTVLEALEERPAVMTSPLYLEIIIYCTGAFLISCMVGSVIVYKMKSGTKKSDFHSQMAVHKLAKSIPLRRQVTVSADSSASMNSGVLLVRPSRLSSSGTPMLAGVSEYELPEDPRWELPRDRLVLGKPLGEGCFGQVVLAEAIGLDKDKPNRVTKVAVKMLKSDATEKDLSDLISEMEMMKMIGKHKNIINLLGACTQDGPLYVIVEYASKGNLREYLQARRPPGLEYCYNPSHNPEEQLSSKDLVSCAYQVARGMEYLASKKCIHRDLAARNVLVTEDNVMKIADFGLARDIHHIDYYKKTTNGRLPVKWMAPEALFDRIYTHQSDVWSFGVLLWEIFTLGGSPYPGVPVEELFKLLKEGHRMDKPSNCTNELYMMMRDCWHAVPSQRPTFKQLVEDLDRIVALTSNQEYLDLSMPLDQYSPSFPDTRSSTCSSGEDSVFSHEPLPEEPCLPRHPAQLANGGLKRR

Compound | # kinases inhibited >50% @ 1 μM [1] | inhibition at 1 µM (ABL1) [%] | inhibition at 1 µM (FGFR1) [%] | inhibition at 1 µM (FRAP1 (mTOR)) [%] | inhibition at 1 µM (MAP2K1 (MEK1)) [%] | inhibition at 1 µM (RAF1 (cRAF) Y340D Y341D) [%] | inhibition at 1 µM (SRPK2) [%]
C[C@@H]1Cc2nn(C)c(-c3ccccc3)c2-c2nc(Nc3ccn(CCN4CCN(C)CC4)n3)ncc21 [Compound I-1] | 6/30 | 24 | 30 | -6 | 34 | 16 | 58
C[C@@H]1Cc2nn(C)c(-c3ccccc3)c2-c2nc(Nc3ccn(CCN4CCN(CC(C)(C)O)CC4)n3)ncc21 [Compound I-3] | 6/30 | 27 | 34 | -10 | 50 | 31 | 49
C[C@@H]1Cc2nn(C)c(-c3ccccc3)c2-c2nc(Nc3ccn(CCN4CCOCC4)n3)ncc21 [Compound I-2] | 7/30 | 17 | 40 | 1 | 58 | 40 | 79

Second part, the molecule after the results:

# kinases inhibited >50% @ 1 μM [1] | inhibition at 1 µM (ABL1) [%] | inhibition at 1 µM (FGFR1) [%] | inhibition at 1 µM (FRAP1 (mTOR)) [%] | inhibition at 1 µM (MAP2K1 (MEK1)) [%] | inhibition at 1 µM (RAF1 (cRAF) Y340D Y341D) [%] | inhibition at 1 µM (SRPK2) [%] | Compound
3/30 | 10 | 29 | -8 | 48 | 25 | 48 | C[C@@H]1Cc2nn(C)c(-c3ccccc3)c2-c2nc(Nc3ccn(CCN4CCN(CC(=O)OC5CCOCC5)CC4)n3)ncc21 [Compound I-8]
6/30 | 22 | 34 | 3 | 40 | 36 | 58 | CC(O)CN1CCN(CCn2ccc(Nc3ncc4c(n3)-c3c(nn(C)c3-c3ccccc3)C[C@H]4C)n2)CC1 (stereo partly shown) [Compound I-7]
6/30 | 17 | 32 | -12 | 36 | 32 | 49 | C[C@@H]1Cc2nn(C)c(-c3ccccc3)c2-c2nc(Nc3ccn(CCN4CCN(CC5CCCO5)CC4)n3)ncc21 (stereo partly shown) [Compound I-9]
4/30 | 10 | 28 | -11 | 39 | 14 | 38 | COCCN1CCN(CCn2ccc(Nc3ncc4c(n3)-c3c(nn(C)c3-c3ccccc3)C[C@H]4C)n2)CC1 [Compound I-11]
